Measured values reported in patent US11963969B2, “Method for prevention or treatment of amyotrophic lateral sclerosis by administering gastrodin” (BUDDHIST TZU CHI MEDICAL FOUNDATION, priority 2021, dated 2024).
“Also recorded” adds a separate entry of the source.

How the values were obtained:
[1] = tested on: SOD1^G85R ALS motor neurons; test: NF staining of SOD1^G85R ALS iPSC-differentiated motor neurons; format: cell-based, human; conditions: 10 μM gastrodin, 72 hrs, vs untreated
Protocol: (§1) The gastrodin was diluted with dimethyl sulfoxide (DMSO) to 10 mM, added to the motor neurons differentiated at Day 25, Day 35 and Day 45 at a dosage ratio of 1:1,000, and cultured for 72 hours (hrs) for various assays.
(§2) A 4-well culture slide with a glass cover placed thereon was coated with 1% Geltrex®, placed at 37° C. for at least 3 to 4 hrs, washed with phosphate buffered saline (PBS) once after removal of the Geltrex®, and soaked in a culture medium until use. The embryoid bodies were dissociated with enzymes or mechanical force into smaller pieces, seeded on the 4-well culture slide, and cultured for 3 days (optionally for a longer period). […]
(§3) Thereafter, the cells were labeled via nuclear staining by adding 200 μL of 4′,6-diamidino-2-phenylindole (DAPI) (1 μg/mL), reacting in dark for 5 to 15 min at room temperature, removing DAPI, washing with PBST twice for 5 min each, removing PBST, adding PBS to maintain the cell moisture, lifting the glass coverslip with a needle tip, reversing the glass coverslip to the side with 50% glycerol or a mounting gel, storing in dark at 4° C., observing with a fluorescence microscope or a confocal microscope and photographing, and subsequently quantifying the numbers of neurofilaments and nerve fiber beads using an OLYMPUS cellSens Dimension Desktop 2.3 software. […]

[2] = tested on: B6SJL-Tg (SOD1*G93A) 1Gur/J transgenic mice; test: ALS model mice: motor abilities, BBB score and survival; format: in vivo
Description: The mice began to develop limb onsets in 80 to 90 days after birth, gradually lose ability to walk, and muscle weakness and atrophy started spreading to the upper parts of body. Most of their voluntary muscles became paralyzed and death after 110 to 120 days due to gradual loss of chewing ability and respiratory failure. The pathological characteristics include symptoms of amyotrophic lateral sclerosis such as muscular dystrophy, synaptic loss of motor neurons, degeneration and death of motor neurons, dismantling of the neuromuscular junction, etc.
Sixty days after birth, the ALS model mice (B6SJL-Tg (SOD1*G93A) 1Gur/J) were administered with gastrodin cycles once every 30 days as a single cycle, and 5 intraperitoneal injection of gastrodin was administered (with one day interval between every two intraperitoneal injections) at the first 10 days. No injection was administered during the subsequent 20 days. A total of two cycles of dosing may be performed until 120 days after birth.
The Example tested whether gastrodin improved the ALS symptoms of transgenic mice.
In this Example, beginning at 60 days after birth, the mice were administered with gastrodin by intraperitoneal injection at a dose of 50 mg/kg or 200 mg/kg for 5 times (with one day interval) every 30 days, until the mice degenerated severely to the extent that the hind lambs lost motor ability completely and until sacrificed. In this Example, motor abilities were tested, and survival time was recorded in days.

[3] = tested on: SOD1^D90A ALS motor neurons; test: NF staining of SOD1^D90A ALS iPSC-differentiated motor neurons; format: cell-based, human; conditions: for efficacy on increasing number of nerve fibers, gastrodin compared with riluzole / reduction of spherical nerve fiber beads, gastrodin compared with riluzole: comparison of gastrodin and riluzole
Protocol: as §1
A 4-well culture slide with a glass cover placed thereon was coated with 1% Geltrex®, placed at 37° C. for at least 3 to 4 hrs, washed with phosphate buffered saline (PBS) once after removal of the Geltrex®, and soaked in a culture medium until use. The embryoid bodies were dissociated with enzymes or mechanical force into smaller pieces, seeded on the 4-well culture slide, and cultured for 3 days (optionally for a longer period). After the cells adhered and extended outwards to present rosettes with a neural tube-like or a neuronal morphology, the immunofluorescent staining was then performed.
For the immunofluorescent staining, the medium was firstly removed, and then the cells were washed with PBS at room temperature twice. Next, 200 μL of 4% paraformaldehyde was added to the cells, and the mixture was reacted at room temperature for 5 to 15 min to fix the cells. The cells were washed with PBS for 3 times for 5 min each, and 200 μL of 99% methanol or 0.3% Triton® was added. The mixture was incubated for 5 to 15 min at 4° C., and the liquid was removed after permeabilization. The methanol, if used for fixation, was volatilized out. Then, the mixture was washed with PBS for 3 times (each for 5 min), and 200 μL of 5% horse serum was added at room temperature for at least 1 hr for blocking. […] The primary antibody was removed after conjugation for 16 hrs, followed by washing with PBS and Tween® 20 (abbreviated as PBST hereinafter) for 3 times for 5 min each, and a secondary antibody (prepared in PBS at a concentration of 1:500) was added. The secondary antibody was kept in dark for 1 hour at room temperature. After removal of the secondary antibody, the mixture was washed 3 times with PBST for 5 min each.
Thereafter, the cells were labeled via nuclear staining by adding 200 μL of 4′,6-diamidino-2-phenylindole (DAPI) (1 μg/mL), reacting in dark for 5 to 15 min at room temperature, removing DAPI, washing with PBST twice for 5 min each, removing PBST, adding PBS to maintain the cell moisture, lifting the glass coverslip with a needle tip, reversing the glass coverslip to the side with 50% glycerol or a mounting gel, storing in dark at 4° C., observing with a fluorescence microscope or a confocal microscope and photographing, and subsequently quantifying the numbers of neurofilaments and nerve fiber beads using an OLYMPUS cellSens Dimension Desktop 2.3 software.
In this Example, SOD1^D90A ALS iPSCs-differentiated motor neurons were used for comparing the efficacies of gastrodin and riluzole on improvement of ALS symptoms.

[4] = tested on: sALS iPSC-differentiated motor neurons; test: NF staining of motor neurons differentiated from sporadic ALS iPSCs; format: cell-based, human; conditions: after treatment with gastrodin
Protocol: as §1, §2, §3

ALS motor neurons = test: ALS motor neurons, summary of axon and neurofilament findings; format: cell-based, human; conditions: 72 hrs after addition of gastrodin
Protocol: as §1

SOD1^D90A motor neurons = test: Calcium ion image analysis after KCl and glutamate stimulation; format: cell-based, human
Protocol: as §1
Cells were seeded on a Geltrex®-coated round glass slide having a diameter of 10 mm, and cultured in a neurobasal medium supplemented with RevitaCell® and compound E for 3 days. 1 μM calcium fluorescent probe Fluo-4 solution was prepared in a physiological buffer containing […], 5 mM KCl, 2 mM CaCl2, 2 mM MgCl2, 10 mM glucose and 10 mM HEPES, and the glass slide on which the cells were seeded was transferred into the 1 μM Fluo-4 solution and cultured at 37° C. for 4 min. The glass slide was transferred into a physiological buffer and cultured at 37° C. for 20 min. The glass slide with cells seeded thereon was transferred into a calcium imaging chamber for imaging under perfusion.
Images were taken under perfusion with a physiological buffer for 30 seconds, then under perfusion with 60 mM KCl for 1 min, and then under perfusion with a physiological buffer for 5 min. Next, images were taken under perfusion with 1 mM glutamate for 1 min, and then under perfusion with a physiological buffer for 5 min. Images were captured with a microscope (Nikon ECLIPSE Ti2-E) and analyzed using NIS-Elements AR software. […]

patients with ALS = conditions: cited from earlier work
[5] = intraperitoneal gastrodin from day 60, vs control
[6] = 10 μM gastrodin, 72 hrs, NF staining, vs untreated

SMILES | amount of nerve fibers [1] | roller residence time ([2]; 50 mg/kg or 200 mg/kg intraperitoneal, 5 times every 30 days from day 60, vs control) | loss of motor ability ([2]; after injection of gastrodin) | mortality rate ([2]; after injection of gastrodin) | symptoms at an earlier stage ([2]; after injection of gastrodin) | suppression on loss of active ability, improvement ([2]; compared to the control group) | BBB scores [2, 5] | extension of life / overall survival time [2, 5] [days] | gripping strength of the hind limbs [2, 5] | amount of nerve fibers [3, 6] | spherical nerve fiber beads [3, 6] | efficacy on increasing number of nerve fibers, gastrodin compared with riluzole [3] | reduction of spherical nerve fiber beads, gastrodin compared with riluzole [3] | amount of nerve fibers [4] | nerve fiber beads [4] | neural axons (ALS motor neurons) | neurofilament accumulation (ALS motor neurons) | response of ALS motor neurons to KCl (SOD1^D90A motor neurons; KCl stimulation) | oversensitive response to glutamate (calcium ion flow) (SOD1^D90A motor neurons; treatment for 72 hrs, 1 mM glutamate stimulation) | degeneration rate of motor ability (patients with ALS)
OCc1ccc(O[C@@H]2O[C@H](CO)[C@@H](O)[C@H](O)[C@H]2O)cc1 [gastrodin] | significantly increase | obviously longer than that of the control; also recorded: increased | obviously delayed | reduced | delayed | about 20 days | retarded the decrease | 10 | clearly increased | increased | significantly decreased | comparable to riluzole | by an extent more than riluzole | increased | decreased | Increased | reduced | promoted | significantly decreased | 
CC1=NN(c2ccccc2)C(=O)C1 [Edaravone, edaravone] |  |  |  |  |  |  |  |  |  |  |  |  |  |  |  |  |  |  |  | can alleviate
Nc1nc2ccc(OC(F)(F)F)cc2s1 [riluzole, reference compound] |  |  |  |  |  |  |  |  |  |  |  | comparable to riluzole | by an extent more than riluzole |  |  |  |  |  |  | 
